{"source": "patent US10047118B2", "about": "“C17-aryl substituted betulinic acid analogs” (priority 2014, dated 2018)", "data": [{"system": "recombinant NL4-3 virus (Renilla luciferase in nef, Gag P373S; NLRluc) in MT-2 cells", "assay": "HIV cell culture assay (luciferase reporter virus in MT-2 cells)", "type": "cell-based", "details": "NL43, read-out: WT EC50", "experimental": "Step 2: To a solution of methyl 4-((1R,3aS,5aR,5bR,7aR,11aS,11bR,13aR,13bR)-5a,5b,8,8,11a-pentamethyl-3a-(1-methyl-1H-1,2,4-triazol-5-yl)-1-(prop-1-en-2-yl)-2,3,3a,4,5,5a,5b,6,7,7a,8,11,11a,11b,12,13,13a,13b-octadecahydro-1H-cyclopenta[a]chrysen-9-yl)benzoate (12.7 mg, 0.021 mmol) in THF (1 mL) and MeOH (0.25 mL) was added a solution of 1N lithium hydroxide (0.073 mL, 0.073 mmol). The reaction was stirred at 75° C. After 1 h, the reaction was cooled to rt and purified by reverse phase prep-HPLC using HPLC method 4 and dried in vacuo to give 4-((1R,3aS,5aR,5bR,7aR,11aS,11bR,13aR,13bR)-5a,5b,8,8,11a-pentamethyl-3a-(1-methyl-1H-1,2,4-triazol-5-yl)-1-(prop-1-en-2-yl)-2,3,3a,4,5,5a,5b,6,7,7a,8,11,11a,11b,12,13,13a,13b-octadecahydro-1H-cyclopenta[a]chrysen-9-yl)benzoic acid (9.1 mg, 0.015 mmol, 70.4% yield) as a white solid. LC/MS: m/e 596.3 (M+H)^+, 5.33 min (method 3). ^1H NMR (400 MHz, 1:1 CDCl3:METHANOL-d4) δ 7.89 (d, J=8.3 Hz, 2H), 7.78 (s, 1H), 7.17 (d, J=8.6 Hz, 2H), 5.30-5.22 (m, 1H), 4.77 (d, J=1.7 Hz, 1H), 3.93 (s, 3H), 3.23-3.05 (m, 2H), 2.33 (d, J=13.7 Hz, 1H), 2.11 (dd, J=17.2, 6.2 Hz, 1H), 2.04-1.96 (m, 1H), 1.93-1.80 (m, 2H), 1.72 (s, 3H), 1.68 (d, J=16.4 Hz, 1H), 1.63-1.58 (m, 1H), 1.55-1.30 (m, 10H), 1.28-1.19 (m, 2H), 1.18-1.08 (m, 2H), 1.04 (s, 3H), 0.97 (s, 3H), 0.90 (s, 6H), 0.82 (s, 3H). HIV cell culture assay—MT-2 cells and 293T cells were obtained from the NIH AIDS Research and Reference Reagent Program. MT-2 cells were propagated in RPMI 1640 media supplemented with 10% heat inactivated fetal bovine serum, […]. The 293T cells were propagated in DMEM media supplemented with 10% heat inactivated fetal bovine serum (FBS), 100 units/mL penicillin G and 100 μg/mL streptomycin. The proviral DNA clone of NL4-3 was obtained from the NIH AIDS Research and Reference Reagent Program. A recombinant NL4-3 virus, in which a section of the nef gene from NL4-3 was replaced with the Renilla luciferase gene, was used as a reference virus. In addition, residue Gag P373 was converted to P373S. Briefly, the recombinant virus was prepared by transfection of the altered proviral clone of NL4-3. Transfections were performed in 293T cells using LipofectAMINE PLUS from Invitrogen (Carlsbad, Calif.), according to manufacturer's instruction. The virus was titered in MT-2 cells using luciferase enzyme activity as a marker. Luciferase was quantitated using the Dual Luciferase kit from Promega (Madison, Wis.), with modifications to the manufacturer's protocol. The diluted Passive Lysis solution was pre-mixed with the re-suspended Luciferase Assay Reagent and the re-suspended Stop & Glo Substrate (2:1:1 ratio). Fifty (50) μL of the mixture was added to each aspirated well on assay plates and luciferase activity was measured immediately on a Wallac TriLux (Perkin-Elmer). Antiviral activities of inhibitors toward the recombinant virus were quantified by measuring luciferase activity in cells infected for 4-5 days with NLRluc recombinants in the presence serial dilutions of the inhibitor. Biological Data Key for EC50", "units": {"EC50": "nM"}, "values": [{"smiles": "C=C(C)[C@@H]1CC[C@]2(c3nnco3)CC[C@]3(C)[C@H](CC[C@@H]4[C@@]5(C)CC=C(c6ccc(C(=O)O)cc6)C(C)(C)[C@@H]5CC[C@]43C)[C@@H]12", "note": "[Example 3, 4-((1R,3aS,5aR,5bR,7aR,11aS,11bR,13aR,13bR)-5a,5b,8,8,11a-pentamethyl-3a-(1,3,4-oxadiazol-2-yl)-1-(prop-1-en-2-yl)-2,3,3a,4,5,5a,5b,6,7,7a,8,11,11a,11b,12,13,13a,13b-octadecahydro-1H-cyclopenta[a]chrysen-9-yl)benzoic acid]", "EC50": "< 100"}, {"smiles": "C=C(C)[C@@H]1CC[C@]2(C#Cc3ccccc3C(=O)O)CC[C@]3(C)[C@H](CC[C@@H]4[C@@]5(C)CC=C(c6ccc(C(=O)O)cc6)C(C)(C)[C@@H]5CC[C@]43C)[C@@H]12", "note": "[Example 1, 2-(((1R,3aS,5aR,5bR,7aR,11aS,11bR,13aR,13bR)-9-(4-carboxyphenyl)-5a,5b,8,8,11a-pentamethyl-1-(prop-1-en-2-yl)-2,3,3a,4,5,5a,5b,6,7,7a,8,11,11a,11b,12,13,13a,13b-octadecahydro-1H-cyclopenta[a]chrysen-3a-yl)ethynyl)benzoic acid]", "EC50": 80}, {"smiles": "C=C(C)[C@@H]1CC[C@]2(C#Cc3ccsc3-c3nnn[nH]3)CC[C@]3(C)[C@H](CC[C@@H]4[C@@]5(C)CC=C(c6ccc(C(=O)O)cc6)C(C)(C)[C@@H]5CC[C@]43C)[C@@H]12", "note": "[Example 2, 4-((1R,3aS,5aR,5bR,7aR,11aS,11bR,13 aR,13bR)-3a-((2-(1H-tetrazol-5-yl)thiophen-3-yl)ethynyl)-5a,5b,8,8,11a-pentamethyl-1-(prop-1-en-2-yl)-2,3,3a,4,5,5a,5b,6,7,7a,8,11,11a,11b,12,13,13a,13b-octadecahydro-1H-cyclopenta[a]chrysen-9-yl)benzoic acid]", "EC50": "> 100"}, {"smiles": "C=C(C)[C@@H]1CC[C@]2(c3ncn(CCN4CCS(=O)(=O)CC4)n3)CC[C@]3(C)[C@H](CC[C@@H]4[C@@]5(C)CC=C(c6ccc(C(=O)O)cc6)C(C)(C)[C@@H]5CC[C@]43C)[C@@H]12", "note": "[Example 6, 4-((1R,3aS,5aR,5bR,7aR,11aS,11bR,13aR,13bR)-3a-(1-(2-(1,1-dioxidothiomorpholino)ethyl)-1H-1,2,4-triazol-3-yl)-5a,5b,8,8,11a-pentamethyl-1-(prop-1-en-2-yl)-2,3,3a,4,5,5a,5b,6,7,7a,8,11,11a,11b,12,13,13a,13b-octadecahydro-1H-cyclopenta[a]chrysen-9-yl)benzoic acid]", "EC50": "< 100"}, {"smiles": "C=C(C)[C@@H]1CC[C@]2(c3nnc(CN(C)C)o3)CC[C@]3(C)[C@H](CC[C@@H]4[C@@]5(C)CC=C(c6ccc(C(=O)O)cc6)C(C)(C)[C@@H]5CC[C@]43C)[C@@H]12", "note": "[Example 4, 4-((1R,3aS,5aR,5bR,7aR,11aS,11bR,13 aR,13bR)-3a-(5-((dimethylamino)methyl)-1,3,4-oxadiazol-2-yl)-5a,5b,8,8,11a-pentamethyl-1-(prop-1-en-2-yl)-2,3,3a,4,5,5a,5b,6,7,7a,8,11,11a,11b,12,13,13a,13b-octadecahydro-1H-cyclopenta[a]chrysen-9-yl)benzoic acid]", "EC50": "< 100"}, {"smiles": "C=C(C)[C@@H]1CC[C@]2(c3ncnn3C)CC[C@]3(C)[C@H](CC[C@@H]4[C@@]5(C)CC=C(c6ccc(C(=O)O)cc6)C(C)(C)[C@@H]5CC[C@]43C)[C@@H]12", "note": "[Example 7, 4-((1R,3aS,5aR,5bR,7aR,11aS,11bR,13aR,13bR)-5a,5b,8,8,11a-pentamethyl-3a-(1-methyl-1H-1,2,4-triazol-5-yl)-1-(prop-1-en-2-yl)-2,3,3a,4,5,5a,5b,6,7,7a,8,11,11a,11b,12,13,13a,13b-octadecahydro-1H-cyclopenta[a]chrysen-9-yl)benzoic acid]", "EC50": "< 100"}, {"smiles": "C=C(C)[C@@H]1CC[C@]2(c3nc[nH]n3)CC[C@]3(C)[C@H](CC[C@@H]4[C@@]5(C)CC=C(c6ccc(C(=O)O)cc6)C(C)(C)[C@@H]5CC[C@]43C)[C@@H]12", "note": "[Example 5, 4-((1R,3aS,5aR,5bR,7aR,11aS,11bR,13aR,13bR)-5a,5b,8,8,11a-pentamethyl-1-(prop-1-en-2-yl)-3a-(1H-1,2,4-triazol-3-yl)-2,3,3a,4,5,5a,5b,6,7,7a,8,11,11a,11b,12,13,13a,13b-octadecahydro-1H-cyclopenta[a]chrysen-9-yl)benzoic acid]", "EC50": "< 100"}]}]}
